Measurements from patent US8669377B2, “Anti-human urothelial carcinoma of supercritical carbon dioxide extract of Cinnamomum subavenium, and the preparation process and uses” (Kaohsiung Medical University, priority 2011, dated 2014).
Read-outs that look alike come from different tables or passages of the source.

Experiments:
[1] = test system: human urothelial carcinoma cell line NTUB1; assay: MTT cytotoxicity assay, NTUB1; format: cell-based
Procedure: (§1) Cytotoxicity assay was performed by using C. subavenium supercritical CO2 extract obtained according to the preparation method mentioned above. […] C. subavenium supercritical CO2 extract selectively functioned on NTUB1 carcinoma cells rather than the normal cells.
(§2) Cellular cytotoxicity of tested compounds was performed by using a MTT (3-[4,5-dimethylthiazol-2-yl]-2,5-diphenyltetrazolium bromide) assay. Briefly, the cells were plated with a density of 1×10^3 cells/well in 96-well plates and incubated at 37° C. overnight before drug treatment. Cells were then cultured in the absence or presence of various concentrations (0.3, 1, 3, 6, 9, 12, 15 and 20 μM) of subamolide A at 37° C. for 72 hours. Subsequently, 50 μL of MTT (2 mg/mL in PBS) was added to each well and allowed to react for another 4 hours. Following centrifugation at 1000×g for 10 minutes, media were removed and 150 μL DMSO were added to each well. The proportions of surviving cells were determined by absorbance spectrometry at 540 nm using a microplate reader. The cell viability was expressed as the survival ratio to the un-treated control. The IC50 values of each group were calculated by the median inhibitory analysis and presented as means±SD. The combinational effects of two compounds were analyzed by median-effect analysis. To evaluate the combined effects in growth inhibition, a corresponding combination index (CI) was adopted for the measurement. The combination index of <1, =1, or >1 denotes synergic, additive, or antagonistic effect, respectively.

[2] = test system: normal urothelial cell line SV-HUC-1; assay: MTT cytotoxicity assay, SV-HUC-1; format: cell-based, human; conditions: SV-HUC-1, 72 hours; read-out: IC50 (reduction of growth)
Procedure: as §1
as §2, with “To evaluate the combined effects in growth inhibition, a corresponding combination index (CI) was adopted for the measurement. The combination index of <1, =1, or >1 denotes synergic, additive, or antagonistic effect, respectively.” left out

[3] = test system: urothelial carcinoma cells T24; assay: MTT cytotoxicity assay, T24; format: cell-based, human; conditions: T24, 72 hours; read-out: IC50 (reduction of growth)
Procedure: as §2

[4] = test system: prostate cancer cells PC3; assay: MTT cytotoxicity assay, PC3; format: cell-based, human; conditions: PC3, 72 hours; read-out: IC50 (reduction of growth)
Procedure: as §2

NTUB1 cells [5] = assay: Cell cycle / sub-G1 apoptotic fraction by flow cytometry; format: cell-based, human; conditions: 24 hours
NTUB1 cells [6] = assay: Intracellular ROS (DCFH-DA flow cytometry), NTUB1; format: cell-based, human; conditions: NTUB1, 10 μM, compared with control cells
Procedure: (§3) Production of ROS was analyzed by flow cytometry. Briefly, cells were plated in 6-well plates, and dichlorofluorescein diacetate (DCFH-DA, […]) were added to the treated cells 30 minutes prior to harvest. The cells were collected by trypsinization and washed with PBS. The green fluorescence of intracellular DCF (2′,7′-dichlorofluorescein) was then analyzed by FACScan™ flow cytometer with a 525-nm band pass filter. The ROS production efficiency (M1 ratio) was calculated as “[counts of treated sample in M1−counts of control in M1]/counts of control in M1×100”.

SV-HUC-1 cells = assay: Intracellular ROS (DCFH-DA flow cytometry), SV-HUC-1; format: cell-based, human; conditions: SV-HUC-1, 10 μM, compared with control cells
Procedure: as §3

NTUB1 cells [7] = assay: Immunoblotting of cellular proteins; format: cell-based, human
NTUB1 cells [8] = assay: Combinational cytotoxicity (MTT, combination index, median-effect analysis); format: cell-based, human; conditions: 24, 48, 72 hours
Procedure: as §2, with “respectively. […]” for “respectively.”

N.N.[Cl][Pt][Cl] [CDDP, cis-diamminedichloridoplatinum] showed an IC50 ([1]; 72 hours, 1×10^3 cells/well (data not shown), read-out: IC50 to NTUB1 cells) of 3 µM.
In the case of Nc1ccn([C@@H]2O[C@H](CO)[C@@H](O)C2(F)F)c(=O)n1 [Gem, 4-amino-1-(2-deoxy-2,2-difluoro-β-D-erythro-pentofuranosyl)-pyrimidin-2(1H)-on], the IC50 ([1]; Homo sapiens, NTUB1, 72 hours, 1×10^3 cells/well (data not shown), read-out: IC50 to NTUB1 cells) is reported as 0.008 µM.
For “(3Z,4R,5R)-3-tetradecylidene-4-hydroxy-5-methoxy-5-methylbutanolide [subamolide A]”, the IC50 ([1]; NTUB1, 72 hours, read-out: IC50 (reduction of growth)) was 7.26 ± 0.67 µM, the IC50 [2] was 18.1 ± 1.03 µM and the IC50 [3] was 7.6 ± 0.96 µM. It also gave an IC50 [4] of 10.1 ± 0.59 µM, a sub-G1 apoptotic fraction (NTUB1 cells [5]; 1 μM) of 5% and a sub-G1 apoptotic fraction (NTUB1 cells [5]; 5 μM) of 10.8%. The sub-G1 apoptotic fraction (NTUB1 cells [5]; 10 μM) was 21.9%, the “ROS M1 ratio” value (NTUB1 cells [6]) was −14.7±0.99% and the “ROS M1 ratio” value (SV-HUC-1 cells) was −11.6±1.41%. The “Bax/Bcl-2 ratio, fold of change” value (NTUB1 cells [7]; 10 μM) was “two-fold increase”, the “cytochrome c released from mitochondria to cytosol, fold of change” value (NTUB1 cells [7]; 10 μM) was 2.3 folds and the “ERK1/2 activation (immunoblot)” value (NTUB1 cells [7]; 10 μM, 24 hours, not p38 or JNK) was “specifically activated”. The “p53 protein and phosphorylation of p53 at serine 15” value (NTUB1 cells [7]; NTUB1 cells) was “induced”, the “pro-caspase 3 and 116 kDa full length PARP proteins” value (NTUB1 cells [7]; with increased concentration) was “decreased” and the “combinational effect with CDDP” value (NTUB1 cells [8]; subamolide A 0, 1, 5, 10 μM + CDDP 1 and 3 μM) was “synergism”. The “combinational effect with Gem” value (NTUB1 cells [8]; subamolide A 0, 1, 5, 10 μM + Gem 2 and 8 nM) was “synergism”.
